Experimental data published in publication PMC5451472, “Novel Locally Active Estrogens Accelerate Cutaneous Wound Healing-Part 2” (Scientific Reports, 2017).

What was measured:
[1] = test system: ER transcriptional activity; assay: Ex vivo BLI and luciferase enzymatic assay in organs of ERE-Luc mice; set-up: species or system mouse; conditions: 200 µg/kg s.c., 6 hours after treatment
Protocol: We next examined photon emission in a series of organs excised from the mice euthanized at 6 hours after treatment by measuring photon emission with the CCD camera (Fig. 6a) and by the more sensitive enzymatic assay in tissue extracts of each organ (Fig. 6b).
The selected organs were dissected from the animals who had received luciferine 20 min before euthanasia. The tissues were immediately subjected to ex vivo imaging session of 5 minutes. Photon emission was quantified with the Living Image Software (Caliper, PerkinElmer company) for each tissue and expressed as p/s/cm2/sr.
Luciferase enzymatic activity was measured in cells or selected tissue homogenates by a luminometer (Glomax™96 microplate luminometer; Promega) using Promega standard luciferin (Beetle Luciferin Potassium Salt) and expressed as Relative Light Units over 10 sec/μg protein (RLU/μg protein). Proteins concentrations were measured by Bradford.

[2] = test system: MITO-Luc mice; assay: Granulation tissue histoscore of round full-thickness wound at day 10; assay type: in vivo, mouse; conditions: 200 µg/kg s.c., day 10, round wound, scale 1-3 (vehicle 0.3)
Protocol: The measure of photon emission from the wound area was done for several days after the wounding. 3 days after treatment the bioluminescent signal is highest (Fig. 10 Panel a).
(§1) Ovariectomy was carried out as previously described. Wound healing was done after shaving by VEET depilatory cream a day before the treatment. The 1 cm full-thickness incisional wound was made through the skin and panniculus carnosus muscle of ovariectomized MITO-luc using a surgical scalpel (blade n°10, carbon steel, Swann-Morton Ltd). Round full-thickness wounds were done by cutting out a section of full-thickness skin (around 9 mm in diameter) using fine scissors on the dorsal skin of the isoflurane-anesthetized animal. For in vivo treatment the compounds were administered onto the subcutaneous area surrounding the wound by multiple subcutaneous injection, immediately after the generation of the wound.
At the time of euthanasia, the wounds with surrounding healthy tissue were excised, distended on a strip of hard paper and fixed in 10% buffered formalin (pH = 6). […] For histopathological examination 4 µm sections were routinely stained with Hematoxylin-Eosin (HE) and evaluated under a light microscope. The degree of re-epithelialization, the type and amount of granulation tissue and inflammation, which are the main features of wound healing, were scored separately. […]

[3] = test system: ER transcriptional activity; assay: In vivo BLI time course in wounded ovariectomized ERE-Luc mice, compounds s.c. around the wound; set-up: species or system mouse
Protocol: To study the estrogenic and healing properties of the two compounds, we generated a wound in the ERE-Luc mouse model and tested the activity of the two compounds administered s.c. in the area surrounding the wound as described in the methodology section.
Each group was composed of 4 ERE-Luc females’ mice ovariectomized 2 weeks’ prior the experiment to avoid any interference due to endogenous estrogens. Photon emission was measured in the living animals three times: at 0, 3 and 6 h after s.c. injection.
ERE-Luc and MITO-Luc mice were ovariectomized at two months of age; the experiment was done 2 weeks after surgery to allow the animals to recover and to decrease the levels of circulating estrogens. The animals were fed ad libitum with a special estrogen free diet (AIN 93 M, Mucedola) (Ciana et al. Endocrinology 2005) and housed in individually ventilated plastic cages within a temperature range of 22–25 °C, relative humidity of 50% ± 10% and under an automatic cycle of 12 h light/dark (lights on at 07:00 am). All animal experimentation was carried out in accordance with the ARRIVE and European Guidelines for Animal Care. All animal experiments were approved by the Italian Ministry of Research and University and controlled by a Departmental panel of experts. For the correct dosage of the compounds, the body weight of the animals (on empty stomach, fasted for at least 12–14 hours) was determined immediately before the treatment.
as §1
For the semi-quantitative analysis of in vivo photon emission, animals were injected i.p. with 80 mg/kg of luciferin (Beetle Luciferin Potassium Salt; Promega, Madison, WI, USA) 15 min prior the imaging session. For the imaging, mice were anaesthetized using isofluorane (Isofluorane-Vet; Merial, Lyon, France) and kept under anesthesia during the 5 minutes of the session carried out with a CCD camera: both ventral and dorsal acquisition (Xenogen IVIS Lumina System; Caliper, PerkinElmer company). Photon emission in selected body areas was measured using the Living Image Software (Caliper, PerkinElmer company). The analysis was done in ventral view: whole body, thymus, hepatic area, abdomen, limbs, vagina and in dorsal view in wound area and expressed as photon/second/cm2/steradiant (p/s/cm2/sr).

For `CCCCOC(=O)CCC#C[C@]1(O)CC[C@H]2[C@@H]3CCc4cc(O)ccc4[C@H]3CC[C@@]21C` [1e, 3,17β-Hydroxy-17α-(4′carbobutoxy-1′-butyn-1′-yl)estra-1,3,5-(10)-triene], the “bioluminescence in excised organs (ex vivo BLI, enzymatic luciferase assay)” value [1] was “did not induce bioluminescence in any of the organs investigated”, the “Score of granulation tissue (fibrosis), histoscore mean” value [2] was 1.5 and the “photon emission in body areas (whole body, thymus, hepatic area, abdomen, limbs, vagina)” value ([3]; 200 µg/kg s.c. around wound, 3 or 6 h, ovx mice) was “did not observe increased photon emission in any of the body areas”. For the same compound, the “increase of photon emission in the wound area with respect to time 0” value ([3]; 200 µg/kg s.c., 6 hours, trend) was 30%.
